The data set in a line: collision cross section in nitrogen (drift tube, single-field); higher = larger gas-phase ion size.
Where [1] appears, read: ion type: [M-H], ion source: ESI, ion mode: Negative.
Where [2] appears, read: ion type: [M+Na], ion source: ESI, ion mode: Positive.
Where [3] appears, read: ion type: [M+H], ion source: APCI, ion mode: Positive.
Setting [4] is: ion type: [M+H], ion source: ESI, ion mode: Positive.
[5] abbreviates: ion type: [M+], ion source: APCI, ion mode: Positive.

Structures can show the parent of a compound that is named as a salt.
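Also: chemical standards at 10 µM analysed by drift tube IMS-QTOF MS in about 3.95 torr nitrogen, mean of duplicate injections differing ≤1%, mass error below 10 ppm.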

For the compound `C=CCS(=O)(=O)O` [2-Propene-1-sulfonic acid, sodium salt], the “collision cross section in nitrogen” value under setting [1] is listed as 119.1 Å². Regarding `CCCc1ccccc1O` [2-Propylphenol], the “collision cross section in nitrogen” value under setting [1] was found to be 129.6 Å².

Turning to `CCCCOCCOCCOCCO` [2-[2-(2-Butoxyethoxy)ethoxy]ethanol], the “collision cross section in nitrogen” value under setting [2] was 150.9 Å². For `COCCOCCOCCO` [2-[2-(2-Methoxyethoxy)ethoxy]ethanol], the “collision cross section in nitrogen” value under setting [2] is listed as 135.6 Å².

In the case of `CCCOCCOCCOCCO` [2-[2-(2-Propoxyethoxy)ethoxy]ethanol], the “collision cross section in nitrogen” value under setting [2] turned out to be 144.4 Å².

With `CCCCCCOCCOCCO` [2-[2-(Hexyloxy)ethoxy]ethanol], the “collision cross section in nitrogen” value under setting [2] is on record as 151.8 Å². As to `CCN(CC)c1ccc(C(=O)c2ccccc2C(=O)O)c(O)c1` [2-[4-(Diethylamino)-2-hydroxybenzoyl]benzoic acid], the “collision cross section in nitrogen” value reads like this: under setting [3], 177.2 Å²; under setting [4], 177.1 Å²; under setting [2], 187.1 Å²; under setting [1], 179.8 Å². In the case of `CN(C)CCOCCN(C)CCO` [2-[{2-[2-(Dimethylamino)ethoxy]ethyl}(methyl)amino]ethanol], the “collision cross section in nitrogen” value reads like this: under setting [3], 138.5 Å²; under setting [4], 138.3 Å²; under setting [2], 144 Å². Consider `CCCCCCCCn1sccc1=O` [2-n-Octyl-4-isothiazolin-3-one], for which the “collision cross section in nitrogen” value is, setting by setting: under setting [3], 158.3 Å²; under setting [4], 158 Å². Take `CCc1ccc(O)c(C(C)(C)C)c1` [2-tert-Butyl-4-ethylphenol]: the “collision cross section in nitrogen” value under setting [1] was 144.6 Å².

Take `COc1ccc(O)c(C(C)(C)C)c1` [2-tert-Butyl-4-methoxyphenol]: the “collision cross section in nitrogen” value under setting [1] is listed as 142.3 Å².

In the case of `Cc1ccc(C(C)(C)C)c(O)c1` [2-tert-Butyl-5-methylphenol], the “collision cross section in nitrogen” value under setting [1] is listed as 138.7 Å².

As for `Cc1cccc(C(C)(C)C)c1O` [2-tert-Butyl-6-methylphenol], the “collision cross section in nitrogen” value under setting [1] stood at 138.2 Å². In the case of `COc1ccc(NC(C)=O)cc1N` [3'-Amino-4'-methoxyacetanilide], the “collision cross section in nitrogen” value is reported as 137.3 Å² under setting [3] and 137.2 Å² under setting [4]. In the case of `Cc1cn([C@H]2C[C@H](N=[N+]=[N-])[C@@H](CO)O2)c(=O)[nH]c1=O` [3'-Azido-3'-deoxythymidine], under setting [1], the “collision cross section in nitrogen” value is 159.9 Å². Take `CC(C)(c1cc(Br)c(O)c(Br)c1)c1cc(Br)c(O)c(Br)c1` [3,3',5,5'-Tetrabromobisphenol A]: the “collision cross section in nitrogen” value under setting [1] came out at 193.4 Å².

In the case of `Cc1cc(-c2cc(C)c(N)c(C)c2)cc(C)c1N` [3,3',5,5'-Tetramethylbenzidine], the “collision cross section in nitrogen” value was found to be 175.7 Å² under setting [3], 176 Å² under setting [4] and 162.4 Å² under setting [5]. In the case of `Cc1ccc(NC(=O)N(C)C)cc1NC(=O)N(C)C` [3,3'-(4-Methylbenzene-1,3-diyl)bis(1,1-dimethylurea)], the “collision cross section in nitrogen” value is, setting by setting: under setting [4], 162.7 Å²; under setting [2], 167.6 Å²; under setting [1], 165.1 Å². As to `N#CCCOCCOCCC#N` [3,3'-(Ethylenedioxy)dipropiononitrile], under setting [2], the “collision cross section in nitrogen” value was 143 Å².

For the compound `Nc1ccc(-c2ccc(N)c(Cl)c2)cc1Cl` [3,3'-Dichlorobenzidine dihydrochloride], the “collision cross section in nitrogen” value runs as follows: under setting [4], 167.6 Å²; under setting [5], 153.3 Å². For the compound `Cc1cc(-c2ccc(N)c(C)c2)ccc1N` [3,3'-Dimethylbenzidine dihydrochloride], the “collision cross section in nitrogen” value is, setting by setting: under setting [3], 151.9 Å²; under setting [4], 166.2 Å²; under setting [5], 150.7 Å².

Take `Cc1cc(-c2ccc(N)c(C)c2)ccc1N` [3,3'-Dimethylbenzidine]: the “collision cross section in nitrogen” value by setting is: under setting [3], 166.1 Å²; under setting [4], 166.5 Å²; under setting [5], 150.8 Å². In the case of `Cc1cc(C(C)(C)c2ccc(O)c(C)c2)ccc1O` [3,3'-Dimethylbisphenol A], the “collision cross section in nitrogen” value under setting [1] is listed as 172.9 Å². Regarding `Nc1cccc(S(=O)(=O)c2cccc(N)c2)c1` [3,3'-Sulphonyldianiline], the “collision cross section in nitrogen” value under setting [2] is 172.6 Å². `NCCCOCCOCCOCCCN` [3,3'-[Oxybis(ethane-2,1-diyloxy)]dipropan-1-amine]: the “collision cross section in nitrogen” value under setting [3] was found to be 147.9 Å², the “collision cross section in nitrogen” value under setting [4] came out at 148.3 Å² and the “collision cross section in nitrogen” value under setting [2] amounted to 150.3 Å². For the compound `Nc1ccc(Oc2ccc(N)c(N)c2)cc1` [3,4,4'-Triaminodiphenyl ether], the “collision cross section in nitrogen” value under setting [3] is 159.9 Å². For the compound `N#Cc1nc(Cl)c(Cl)c(Cl)c1Cl` [3,4,5,6-Tetrachloropyridine-2-carbonitrile], the “collision cross section in nitrogen” value under setting [4] was 142.6 Å². Turning to `O=C1CCc2ccccc2O1` [3,4-Dihydrocoumarin], the “collision cross section in nitrogen” value under setting [1] was determined as 127.6 Å². As to `Cc1ccc(O)cc1C` [3,4-Dimethylphenol], under setting [1], the “collision cross section in nitrogen” value was found to be 128.7 Å².

For the compound `N[C@@H](Cc1cc(I)c(Oc2ccc(O)c(I)c2)c(I)c1)C(=O)O` [3,5,3'-Triiodothyronine], the “collision cross section in nitrogen” value under setting [4] is listed as 205.3 Å² and the “collision cross section in nitrogen” value under setting [1] is on record as 198.1 Å². On the same counts, the results for `N[C@@H](Cc1cc(I)c(Oc2ccc(O)c(I)c2)c(I)c1)C(=O)O` [3,5,3′-Triiodo-L-thyronine monosodium salt] are 204.8 Å² and 198.1 Å².

Regarding `Nc1cc(N)cc(C(=O)O)c1` [3,5-Diaminobenzoic acid], under setting [1], the “collision cross section in nitrogen” value is 136.6 Å². Regarding `O=C(O)c1cc(Br)c(O)c(Br)c1` [3,5-Dibromo-4-hydroxybenzoic acid], the “collision cross section in nitrogen” value under setting [1] stood at 136.4 Å². The same measure, in the same setting: the result for `O=C1N=CC(Cl)=CC1Cl` (configuration not stated) [3,5-Dichloro-2-pyridone] reads 123.4 Å²; that for `O=C(O)c1cc(Cl)cc(Cl)c1O` [3,5-Dichlorosalicylic acid], 130.7 Å².

On to `CCCC1C(CC)=CC(CC)=CN1c1ccccc1` (configuration not stated) [3,5-Diethyl-1-phenyl-2-propyl-1,2-dihydropyridine], for which the “collision cross section in nitrogen” value under setting [3] amounted to 163.4 Å². As to `Cc1cc(C)cc(O)c1` [3,5-Dimethylphenol], the “collision cross section in nitrogen” value under setting [1] is 127.3 Å². For the compound `COCCOCCOCCOCCOCCO` [3,6,9,12,15-Pentaoxahexadecanol], the “collision cross section in nitrogen” value under setting [3] stood at 151.8 Å² and the “collision cross section in nitrogen” value under setting [2] turned out to be 153.3 Å². For the compound `CCCCOCCOCCOCCOCCO` [3,6,9,12-Tetraoxahexadecan-1-ol], the “collision cross section in nitrogen” value under setting [3] is reported as 157.1 Å² and the “collision cross section in nitrogen” value under setting [2] turned out to be 160.4 Å². Take `C=COCCOCCOCCOC=C` [3,6,9,12-Tetraoxatetradeca-1,13-diene]: under setting [2], the “collision cross section in nitrogen” value was 143.4 Å². `CC(=O)CCCCn1c(=O)c2c(ncn2C)n(C)c1=O` [3,7-Dihydro-3,7-dimethyl-1-(5-oxohexyl)-1H-Purine-2,6-dione]: the “collision cross section in nitrogen” value came to 160.9 Å² under setting [4] and 172 Å² under setting [2]. Take `CCC(C)(CCCC(C)C)OC(C)=O` (configuration not stated) [3,7-Dimethyloctan-3-yl acetate]: under setting [1], the “collision cross section in nitrogen” value stood at 154.8 Å². Consider `OCCCc1cccnc1` [3-(3-Pyridyl)-1-propanol], for which the “collision cross section in nitrogen” value amounted to 128 Å² under setting [3] and 128.4 Å² under setting [4]. For the compound `CCN(Cc1cccc(S(=O)(=O)O)c1)c1ccccc1` [3-((Ethylphenylamino)methyl)benzenesulfonic acid], the “collision cross section in nitrogen” value worked out at 161.1 Å² under setting [4], 174.9 Å² under setting [2] and 175.5 Å² under setting [1]. Take `NCc1cccnc1` [3-(Aminomethyl)pyridine]: the “collision cross section in nitrogen” value was 118.5 Å² under setting [3] and 119.6 Å² under setting [4]. For `ClCc1cccnc1` [3-(Chloromethyl)pyridine hydrochloride], the “collision cross section in nitrogen” value under setting [3] came to 123.8 Å².

Regarding `CCCCCCCCCCC=CC1CC(=O)OC1=O` (configuration not stated) [3-(Dodecenyl)dihydro-2,5-furandione], the “collision cross section in nitrogen” value under setting [1] was determined as 170.1 Å². `CCN(CCC#N)c1cccc(C)c1` [3-(Ethyl(3-methylphenyl)amino)propanenitrile]: the “collision cross section in nitrogen” value stood at 144.7 Å² under setting [3], 144.3 Å² under setting [4] and 143.6 Å² under setting [5]. For the compound `CCCCCCCCOCCCN` [3-(Octyloxy)propan-1-amine], the “collision cross section in nitrogen” value under setting [3] was determined as 156.9 Å² and the “collision cross section in nitrogen” value under setting [4] was 156.2 Å². As for `O=[N+]([O-])c1ccc(O)cc1C(F)(F)F` [3-(Trifluoromethyl)-4-nitrophenol], the “collision cross section in nitrogen” value under setting [1] was 128.7 Å².

As to `O=C(O)c1cccc(C(F)(F)F)c1` [3-(Trifluoromethyl)benzoic acid], under setting [1], the “collision cross section in nitrogen” value stood at 132.4 Å². Still for that read-out and setting: the figure for `Oc1cccc(C(F)(F)F)c1` [3-(Trifluoromethyl)phenol] is 121.3 Å². Take `CC(=O)c1cccnc1` [3-Acetylpyridine]: the “collision cross section in nitrogen” value under setting [3] is given as 123.6 Å². Regarding `Nc1cc(C(=O)O)ccc1Cl` [3-Amino-4-chlorobenzoic acid], the “collision cross section in nitrogen” value under setting [1] was 135.4 Å².

`Cc1c(Cl)c(=O)oc2cc(O)ccc12` [3-Chloro-7-hydroxy-4-methyl-2-benzopyrone]: the “collision cross section in nitrogen” value under setting [4] amounted to 138.4 Å². `Oc1ccc(-c2ccccc2)cc1Cl` [3-Chloro[1,1′-biphenyl]-4-ol]: under setting [1], the “collision cross section in nitrogen” value was found to be 143.8 Å². On the same count and under the same terms, the result for `CCOc1cc(C=O)ccc1O` [3-Ethoxy-4-hydroxybenzaldehyde] reads 133.6 Å².

The record behind these values is the supplement of paper PMC12317010.
